According to patent US11882834B2, “Microbiocidal thiazole derivatives” (SYNGENTA PARTICIPATIONS AG, priority 2017, dated 2024):

How the values were obtained:
[1] = system: Mycosphaerella arachidis (Cercospora arachidicola); assay: Mycosphaerella arachidis (Cercospora arachidicola) / liquid culture (early leaf spot); assay type: cell-based; details: 200 ppm in the formulation; liquid culture (PDB), growth determined photometrically 4-5 days after application; compared to untreated
Procedure: Mycosphaerella arachidis (Cercospora arachidicola)/Liquid Culture (Early Leaf Spot) Conidia of the fungus from cryogenic storage are directly mixed into nutrient broth (PDB potato dextrose broth). After placing a (DMSO) solution of test compound into a microtiter plate (96-well format), the nutrient broth containing the fungal spores is added. The test plates are incubated at 24° C. and the inhibition of growth is determined photometrically 4-5 days after application.

[2] = system: Phaeosphaeria nodorum (Septoria nodorum); assay: Phaeosphaeria nodorum (Septoria nodorum) / wheat / leaf disc preventative (glume blotch); assay type: in vivo; details: 200 ppm in the formulation, wheat leaf segments cv. Kanzler, compared to untreated, 5-7 days after application
Procedure: Phaeosphaeria nodorum (Septoria nodorum)/Wheat/Leaf Disc Preventative (Glume Blotch) Wheat leaf segments cv. Kanzler are placed on agar in a multiwell plate (24-well format) and sprayed with the formulated test compound diluted in water. The leaf disks are inoculated with a spore suspension of the fungus 2 days after application. The inoculated test leaf disks are incubated at 20° C. and 75% rh under a light regime of 12 h light/12 h darkness in a climate cabinet and the activity of a compound is assessed as percent disease control compared to untreated when an appropriate level of disease damage appears in untreated check leaf disks (5-7 days after application).

Cc1sc(Nc2cc(F)nc(F)c2)nc1C(=O)NC1CCC1(C)C (centres unmarked) [Compound I.r.19, 2-[(2,6-difluoro-4-pyridyl)amino]-N-(2,2-dimethylcyclobutyl)-5-methyl-thiazole-4-carboxamide]
disease control [1]: at least 80% | disease control [2]: at least 80%
